According to US9724347B2, “1-pyrazolyl-3-(4-((2-anilinopyrimidin-4-yl)oxy)napththalen-1-yl) ureas as P38 MAP knase inhibitors” (Respivert Ltd., priority 2011, dated 2017):
Marks after values point to notes of the source that are not given here.

Assays:
[1] = target: p38 MAPKα isoform (MAPK14) (Homo sapiens (Human), UniProt Q16539); experiment: p38 MAPKα enzyme inhibition (FRET, Z-LYTE); assay type: biochemical
p38MAPKγ (MAPK12) = p38MAPKγ (MAPK12) (Homo sapiens (Human), UniProt P53778); experiment: p38 MAPKγ enzyme inhibition (FRET, Z-LYTE); assay type: biochemical
Outline: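 Z-LYTE FRET kinase format on donor/acceptor-labeled synthetic peptide; protease development 1 hr cleaves only non-phosphorylated peptide. Phosphorylation derived from coumarin/fluorescein emission ratio, low ratio indicating high phosphorylation.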

GSK 3α enzyme isoform = GSK 3α enzyme isoform (Homo sapiens (Human), UniProt P49840); experiment: GSK 3α enzyme inhibition (FRET, Z-LYTE); assay type: biochemical; conditions: read-out: IC50 Values for Enzyme Inhibition GSK3α
Outline: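 Human GSK3α (500 ng/mL stock) was preincubated 2 h at RT with compound (stocks 4, 0.4, 0.04 or 0.004 μg/mL), then given FRET peptide (8 μM stock) and ATP (40 μM stock) for 1 h. After 1 h protease development, the coumarin/fluorescein emission ratio gave phosphorylation level.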

[2] = test system: ICAM-1 expression in BEAS2B cells; experiment: Poly I:C-induced ICAM-1 expression in BEAS2B cells; assay type: cell-based, human; conditions: Homo sapiens, BEAS-2B, read-out: PolyIC/ICAM1 IC50 (BEAS2B)
Outline: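 BEAS2B human bronchial epithelial cells pre-incubated 2 h with compound, then transfected with 1 μg/mL poly I:C plus Oligofectamine. After 18 h, surface ICAM-1 measured by cell-based ELISA (OD450–655), normalised to crystal violet cell count (OD595). Inhibition calculated against vehicle control.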

d-U937 cells = experiment: Cell viability: MTT assay; assay type: cell-based, human; conditions: 1 μg/mL
Outline: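 Differentiated U937 cells exposed to compound at 1 or 10 μg/mL final, either 4 h in 5% FCS RPMI1640 or 24 h in 10% FCS RPMI1640. After medium replacement, MTT added 1 h, formazan dissolved in DMSO, A550 read. % viability loss vs 0.5% DMSO vehicle; apparent viability gain shown as negative %.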

PBMC cells = experiment: Cell mitosis assay; assay type: cell-based, human
Description: Peripheral blood mononucleocytes (PBMCs) from healthy subjects were separated from whole blood (Quintiles, London, UK) using a density gradient (Histopaque®-1077, Sigma-Aldrich, Poole, UK). The PBMCs (3 million cells per sample) were subsequently treated with 2% PHA (Sigma-Aldrich, Poole, UK) for 48 hr, followed by a 20 hr exposure to varying concentrations of test compounds. At 2 hr before collection, PBMCs were treated with demecolcine (0.1 μg/mL; Invitrogen, Paisley, UK,) to arrest cells in metaphase. To observe mitotic cells, PBMCs were permeabilised and fixed by adding Intraprep (50 μL; Beckman Coulter, France), and stained with anti-phospho-histone 3 ([…]; #9701; Cell Signalling, Danvers, Mass.) and propidium iodide (1 mg/mL; Sigma-Aldrich, Poole, UK,) as previously described (Muehlbauer P. A. and Schuler M. J., Mutation Research, 2003, 537:117-130). Fluorescence was observed using an ATTUNE flow cytometer (Invitrogen, Paisley, UK), gating for lymphocytes.

HRV16 = HRV16 induced CPE in MRC5 cells; assay type: cell-based, human rhinovirus; conditions: tested at 0.0008 μg/mL, low cell viability at 0.04 μg/mL
Description: The supernatants were aspirated, and then fresh media added followed by incubation for 4 days. Where appropriate, cells were pre-incubated with compound or DMSO for 2 hr, and the compounds and DMSO added again after washout of the virus.
The percentage inhibition for each well was calculated. The IC50 value was calculated from the concentration-response curve generated by the serial dilutions of the test compounds.

p38MAPKγ (MAPK12), sequence (P53778 whole entry): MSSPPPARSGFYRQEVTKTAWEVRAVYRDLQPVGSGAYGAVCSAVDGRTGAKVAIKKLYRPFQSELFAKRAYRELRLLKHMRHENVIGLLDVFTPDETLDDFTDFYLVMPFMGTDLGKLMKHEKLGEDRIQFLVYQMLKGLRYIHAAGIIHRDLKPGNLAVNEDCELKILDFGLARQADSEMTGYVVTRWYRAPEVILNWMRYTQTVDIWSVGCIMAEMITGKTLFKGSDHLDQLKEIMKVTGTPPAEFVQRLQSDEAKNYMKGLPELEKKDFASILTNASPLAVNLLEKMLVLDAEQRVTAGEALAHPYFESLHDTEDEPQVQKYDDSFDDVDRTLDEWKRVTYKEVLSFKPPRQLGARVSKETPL
GSK 3α enzyme isoform, sequence (P49840 whole entry, canonical isoform): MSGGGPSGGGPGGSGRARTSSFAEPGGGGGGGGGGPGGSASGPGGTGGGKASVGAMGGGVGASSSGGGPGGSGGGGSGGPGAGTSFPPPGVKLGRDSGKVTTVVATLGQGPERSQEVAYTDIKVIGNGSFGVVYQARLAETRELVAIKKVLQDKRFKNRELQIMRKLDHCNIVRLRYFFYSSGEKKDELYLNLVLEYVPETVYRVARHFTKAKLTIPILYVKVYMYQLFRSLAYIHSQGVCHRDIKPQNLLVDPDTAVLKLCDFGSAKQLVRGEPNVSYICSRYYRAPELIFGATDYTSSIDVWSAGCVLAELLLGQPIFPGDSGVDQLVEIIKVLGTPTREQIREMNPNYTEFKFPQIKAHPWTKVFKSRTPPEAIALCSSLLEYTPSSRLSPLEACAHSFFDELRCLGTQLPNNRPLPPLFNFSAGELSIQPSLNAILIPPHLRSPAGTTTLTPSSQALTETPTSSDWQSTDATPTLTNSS
p38 MAPKα isoform (MAPK14), sequence (Q16539 whole entry, canonical isoform): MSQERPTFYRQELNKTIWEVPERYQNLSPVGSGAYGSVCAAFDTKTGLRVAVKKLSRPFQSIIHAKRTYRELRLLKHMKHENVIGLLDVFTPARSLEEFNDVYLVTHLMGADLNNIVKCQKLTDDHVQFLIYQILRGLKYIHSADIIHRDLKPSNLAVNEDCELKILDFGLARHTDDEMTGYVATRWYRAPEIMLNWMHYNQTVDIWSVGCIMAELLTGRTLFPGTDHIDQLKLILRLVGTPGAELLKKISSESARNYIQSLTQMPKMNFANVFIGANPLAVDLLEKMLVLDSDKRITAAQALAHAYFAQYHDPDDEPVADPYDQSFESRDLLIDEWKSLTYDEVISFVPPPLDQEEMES

| Structure (SMILES) | IC50 [1] | IC50 (p38MAPKγ (MAPK12)) | IC50 (GSK 3α enzyme isoform) | IC50 [2] | MTT Assay Cell viability at time point in d-U937 Cells (d-U937 cells; 4 h) | MTT Assay Cell viability at time point in d-U937 Cells (d-U937 cells; 24 h) | Mitosis Assay % inhibition in PBMC Cells (PBMC cells; 1 μg/mL) | Mitosis Assay % inhibition in PBMC Cells (PBMC cells; 5 μg/mL) | HRV CPE (MRC5) % inhibition (HRV16) |
| --- | --- | --- | --- | --- | --- | --- | --- | --- | --- |
| COc1ccc(Nc2nccc(Oc3ccc(NC(=O)Nc4cc(C(C)(C)C)nn4-c4ccc(C)cc4)c4ccccc34)n2)c(OC)c1 [Example 8, 1-(3-(tert-butyl)-1-(p-tolyl)-1H-pyrazol-5-yl)-3-(4-((2-((2,4-dimethoxyphenyl)amino)pyrimidin-4-yl)oxy)naphthalen-1-yl)urea] | 0.151 µM | > 15.5 µM | > 15.5 µM | 0.022 µM | −ve (−ve and +ve indicate the value is below and above respectively, the no significant effect threshold defined as 30% inhibition at 1 μg/mL at the time point indicated) | −ve (−ve and +ve indicate the value is below and above respectively, the no significant effect threshold defined as 30% inhibition at 1 μg/mL at the time point indicated) | 15.6% |  |  |
| COc1ccc(-n2nc(C(C)(C)C)cc2NC(=O)Nc2ccc(Oc3ccnc(Nc4ccc(O)cc4)n3)c3ccccc23)cc1 [Example 33, 1-(3-(tert-butyl)-1-(4-methoxyphenyl)-1H-pyrazol-5-yl)-3-(4-((2-((4-hydroxyphenyl)amino)pyrimidin-4-yl)oxy)naphthalen-1-yl)urea] | 0.06 µM | 0.264 µM | 2.38 µM | 0.0026 µM | −ve (−ve and +ve indicate the value is below and above respectively, the no significant effect threshold defined as 30% inhibition at 1 μg/mL at the time point indicated) | −ve (−ve and +ve indicate the value is below and above respectively, the no significant effect threshold defined as 30% inhibition at 1 μg/mL at the time point indicated) |  | 67.2% |  |
| Cc1ccc(-n2nc(C(C)(C)C)cc2NC(=O)Nc2ccc(Oc3ccnc(Nc4cccc(O)c4)n3)c3ccccc23)cc1 [Example 2, 1-(3-(tert-Butyl)-1-(p-tolyl)-1H-pyrazol-5-yl)-3-(4-((2-((3-hydroxyphenyl)amino)pyrimidin-4-yl)oxy)naphthalen-1-yl)urea] |  | 0.557 µM |  |  | −ve (−ve and +ve indicate the value is below and above respectively, the no significant effect threshold defined as 30% inhibition at 1 μg/mL at the time point indicated) | −ve (−ve and +ve indicate the value is below and above respectively, the no significant effect threshold defined as 30% inhibition at 1 μg/mL at the time point indicated) |  | 70.6% |  |
| Cc1ccc(-n2nc(C(C)(C)C)cc2NC(=O)Nc2ccc(Oc3ccnc(Nc4ccc(O)cc4)n3)c3ccccc23)cc1 [Example 9, 1-(3-(tert-butyl)-1-(p-tolyl)-1H-pyrazol-5-yl)-3-(4-((2-((4-hydroxyphenyl)amino)pyrimidin-4-yl)oxy)naphthalen-1-yl)urea] | 0.171 µM | 0.76 µM | 3.26 µM |  | −ve (−ve and +ve indicate the value is below and above respectively, the no significant effect threshold defined as 30% inhibition at 1 μg/mL at the time point indicated) | −ve (−ve and +ve indicate the value is below and above respectively, the no significant effect threshold defined as 30% inhibition at 1 μg/mL at the time point indicated) |  | 50.3% |  |
| CCOc1ccc(Nc2nccc(Oc3ccc(NC(=O)Nc4cc(C(C)(C)C)nn4-c4ccc(C)cc4)c4ccccc34)n2)cc1 [Example 22, 1-(3-(tert-butyl)-1-(p-tolyl)-1H-pyrazol-5-yl)-3-(4-((2-((4-ethoxyphenyl)amino)pyrimidin-4-yl)oxy)naphthalen-1-yl)urea] | 0.281 µM | > 1.59 µM | > 1.59 µM | 0.013 µM | −ve (−ve and +ve indicate the value is below and above respectively, the no significant effect threshold defined as 30% inhibition at 1 μg/mL at the time point indicated) | −ve (−ve and +ve indicate the value is below and above respectively, the no significant effect threshold defined as 30% inhibition at 1 μg/mL at the time point indicated) |  | 70.8% |  |
| Cc1ccc(-n2nc(C(C)(C)C)cc2NC(=O)Nc2ccc(Oc3ccnc(Nc4ccc(O)cc4O)n3)c3ccccc23)cc1 [Example 32, 1-(3-(tert-butyl)-1-(p-tolyl)-1H-pyrazol-5-yl)-3-(4-((2-((2,4-dihydroxyphenyl)amino)pyrimidin-4-yl)oxy)naphthalen-1-yl)urea] | 0.189 µM | > 1.62 µM | > 1.62 µM | 0.021 µM | −ve (−ve and +ve indicate the value is below and above respectively, the no significant effect threshold defined as 30% inhibition at 1 μg/mL at the time point indicated) | −ve (−ve and +ve indicate the value is below and above respectively, the no significant effect threshold defined as 30% inhibition at 1 μg/mL at the time point indicated) |  | 33.0% |  |
| COc1ccc(-n2nc(C(C)(C)C)cc2NC(=O)Nc2ccc(Oc3ccnc(Nc4ccccc4)n3)c3ccccc23)cc1 [Example 7, 1-(3-(tert-butyl)-1-(4-methoxyphenyl)-1H-pyrazol-5-yl)-3-(4-((2-(phenylamino)pyrimidin-4-yl)oxy)naphthalen-1-yl)urea] | 0.17 µM | 1.7 µM | 3.5 µM | 0.023 µM | −ve (−ve and +ve indicate the value is below and above respectively, the no significant effect threshold defined as 30% inhibition at 1 μg/mL at the time point indicated) | −ve (−ve and +ve indicate the value is below and above respectively, the no significant effect threshold defined as 30% inhibition at 1 μg/mL at the time point indicated) |  | 10.2% |  |
| COc1cc(Nc2nccc(Oc3ccc(NC(=O)Nc4cc(C(C)(C)C)nn4-c4ccc(C)cc4)c4ccccc34)n2)ccc1O [Example 25, 1-(3-(tert-butyl)-1-(p-tolyl)-1H-pyrazol-5-yl)-3-(4-((2-((4-hydroxy-3-methoxyphenyl)amino)pyrimidin-4-yl)oxy)naphthalen-1-yl)urea] | 0.077 µM | 0.281 µM | > 1.59 µM | 0.0025 µM | −ve (−ve and +ve indicate the value is below and above respectively, the no significant effect threshold defined as 30% inhibition at 1 μg/mL at the time point indicated) | −ve (−ve and +ve indicate the value is below and above respectively, the no significant effect threshold defined as 30% inhibition at 1 μg/mL at the time point indicated) | 29.1% | 63.5% | 33%* |
| COc1ccc(Nc2nccc(Oc3ccc(NC(=O)Nc4cc(C(C)(C)C)nn4-c4ccc(C)cc4)c4ccccc34)n2)cc1OC [Example 27, 1-(3-(tert-butyl)-1-(p-tolyl)-1H-pyrazol-5-yl)-3-(4-((2-((3,4-dimethoxyphenyl)amino)pyrimidin-4-yl)oxy)naphthalen-1-yl)urea] | 0.105 µM | 0.535 µM | 2.11 µM | 0.0016 µM | +ve (−ve and +ve indicate the value is below and above respectively, the no significant effect threshold defined as 30% inhibition at 1 μg/mL at the time point indicated) | −ve (−ve and +ve indicate the value is below and above respectively, the no significant effect threshold defined as 30% inhibition at 1 μg/mL at the time point indicated) |  | 11.2% |  |
